Assay results taken from patent US10407400B2, “Compounds, compositions, and methods for modulating sweet taste” (Chromocell Corporation, priority 2015, dated 2019).

Tested on: perception of sweet taste of High Fructose Corn Syrup (HFCS)
Test: Two-alternative forced choice (2AFC) sip and spit sensory test of perceived sweetness in Lemon Lime beverage
Format: in vivo, humans
Details: Lemon Lime beverage pH 3.1
Method: Effect of Test Compounds on the Perception of Sweet Taste of High Fructose Corn Syrup (HFCS) Two-alternative Forced Choice Method (2AFC). The effect of the test compounds and combinations of test compounds on the perception of the sweet taste of a flavored beverage (referred to as Lemon Lime henceforth) of sweetener in humans was evaluated using a two-alternative forced choice “sip and spit” method (2AFC). The Lemon Lime solutions were prepared by adding sucrose equivalent (SE) quantities of high fructose corn syrup (HFCS) (by weight), to water to achieve the desired concentration. The lemon lime pH is 3.1. Compounds were first prepared as a 500-fold concentrated stock solution in 100% ethanol. These concentrated stocks were then added to the aqueous sweetener solutions to result in a final ethanol concentration of 0.2%. […] In this manner, compounds were not assessed simply for an increase in perceived sweetness, but a significant increase in perceived sweetness above the positive control. […] Data were analyzed using binomial probabilities. Approximate levels of sweetness enhancement in column 5 of Table 1 were calculated as follows: Approximate levels of sweetness enhancement=Sweetener concentration of positive control surpassed by the test sample, divided by sweetener concentration for compound-containing sample (e.g. 1.5×=7.5brix HFCS/5brix HFCS).

COc1cc(C2CC(=O)Oc3cc(C)cc(O)c32)ccc1O (racemic) [Compound 1, 5-hydroxy-4-(4-hydroxy-3-methoxyphenyl)-7-methylchroman-2-one] was tested, and the “Fold increase in perceived sweetness” value (positive control 10brix HFCS surpassed, divided by test sample 7.14brix HFCS, compound concentration 25 ppm (1) or 41.25 ppm (1 & 4)) was over 1.4X and the “Compound concentration with positive 2AFC results” value (test sample 7.14brix HFCS with compound surpassed positive control 10brix HFCS, taste panelists n≥15, 0.2% ethanol) was 25 ppm.
